A short description of the data set: Pharmacokinetic assay of Balb/c mice, plasma and brain, oral. In kind it is in vivo. The conditions noted are these: male, mouse, p.o. 5 mg/kg. The protocol: Test Example 3. Pharmacokinetic Assay of Balb/c Mice
Balb/c Mice were used as test animals. The pharmacokinetic behavior of the compounds of the present invention was studied in the plasma and brain of mice administered orally at the dose of 5 mg/kg.
Balb/c Mice, male, Shanghai Jiesijie Experimental Animal Co., Ltd., animal production license number (SCXK (Shanghai) 2013-0006 N0.311620400001794).
After fasting overnight, 24 male Balb/c mice were administered p.o. at a dose of 5 mg/kg and an administration volume of 10 mL/kg, respectively.
Drug formulation for oral administration: 0.5% CMC-Na (1% Tween 80).
After CO2 euthanasia of experimental animals, heart blood and brain tissue were collected at 0.25 h, 0.5 h, 1 h, 2 h, 4 h, 6 h, 8 h, and 24 h after administration. The blood was placed in EDTA-2K tubes and centrifuged at 4° C. and 6000 rpm for 6 minutes to separate plasma. The brain tissue was washed with pre-cooled PBS, dried, weighed, and stored at −80° C. The animals were feed 4 hours after administration.
1) 160 μL of acetonitrile was added to 40 μL of the plasma sample for precipitation, and then the mixture was centrifuged at 3500×g for 5-20 min.
2) 100 μL of the supernatant was taken to analyze the concentration of the test compound by LC/MS/MS.
• Liquid chromatography condition: Shimadzu LC-20AD pump • Mass spectrometry condition: AB Sciex API 4000 mass spectrometer • Chromatographic column: phenomenex Gemiu 5 μm C18 50×4.6 mm • Mobile phase: Eluent A was 0.10% formic acid in water, and Eluent B was acetonitrile • Flow rate: […] • Elution time: 0-4.0 minutes, the eluent is as follows:
The main pharmacokinetic parameters were calculated using WinNonlin8.1, and the results of the pharmacokinetic experiments in mouse are shown in the table below.

What is called AUC(0-t) is exposure summed from dosing to a finite time, without extrapolation to infinity. Higher therefore signals high exposure. As usually defined, the Cmax is the peak of the concentration-time curve. In general, Tmax refers to the time at which the peak concentration occurs. As a reminder, the half-life is the time needed for the level to fall by half in the phase considered. A lower half-life goes with fast loss. On to `[2H]C1([2H])COC(c2cccc(C)n2)CN1` (single isomer, unassigned) [Example 10-2, 2-(6-Methylpyridin-2-yl)morpholin-5,5-d2], for which, for the setting “Brain”, the AUC(0-t) was found to be 12500 ng·h/mL, the highest level (Cmax) was 3540 ng/mL, the time of peak concentration (Tmax) was found to be 30 min and the half-life is 150 min. Further, for the setting “Plasma”, the AUC(0-t) came out at 5430 ng·h/mL, the Cmax stood at 1320 ng/mL, the Tmax is 15 min and the half-life was 144 min.

Consider `[2H]C1([2H])CO[C@H](c2ccc(F)cc2)CN1` (single isomer, unassigned) [Example 33-1, 2-(4-Fluorophenyl)morpholin-5,5-d2], for which, for the setting “Brain”, the AUC(0-t) came to 15300 ng·h/mL, the Cmax turned out to be 8360 ng/mL, the Tmax is 15 min and the half-life is 192 min. For the same molecule, for the setting “Plasma”, the AUC(0-t) turned out to be 5030 ng·h/mL, the maximum concentration (Cmax) was found to be 1970 ng/mL, the Tmax was 15 min and the half-life was 192 min.

Consider `[2H]C1([2H])CO[C@@H](c2ccc(F)cn2)CN1` (single isomer, unassigned) [Example 17-2, 2-(5-fluoropyridin-2-yl)morpholin-5,5-d2], for which, for the setting “Brain”, the AUC(0-t) amounted to 7500 ng·h/mL, the peak concentration (Cmax) amounted to 3160 ng/mL and the Tmax is 30 min. Moreover, for the setting “Plasma”, the AUC(0-t) was 2630 ng·h/mL, the Cmax stood at 1450 ng/mL, the Tmax stood at 15 min and the half-life was 78 min.

The values are drawn from patent US20250051316A1, “2-(ARYL-2-YL) […] […], PREPARATION METHOD THEREFOR AND APPLICATION THEREOF” (SHANGHAI HANSOH BIOMEDICAL CO., LTD., priority 2021, published 2025).
